Biological target: HLA-DQ8
Test: Competitive in vitro HLA-DQ8 binding assay
Set-up: species or system human
Conditions: competition with FITC-labelled GAD65 253-265 R255F peptide (10 μM), thrombin-cleaved HLA-DQ8 monomers 0.4 μM, 48 h at 37 °C; one-site competitive binding fit
Experimental: Competitive binding assays were carried out according to previously established procedures[30][67][68]: HLA-DQ8 monomers were kindly provided by R.A.W. from the NIH Tetramer Core Facility (Atlanta, USA). The CLIP peptide of HLA-DQ8 molecules was cleaved off by incubation with thrombin (Novagen) for 2 h (ref. [69]).
Specifically, a FITC-labelled GAD65 253-265^R255F peptide (IAFFKMFPEVKEK) was used as an indicator peptide (10 μM) for the binding reaction together with thrombin-cleaved HLA-DQ8 monomers (0.4 μM) and increasing concentrations of competitor peptides (natural insulin B:9-23, ins.mim.1,2,3,4, MP185-204). The MP185-204 peptide ([…]) was used as a positive DQ8-binding control. The indicator peptide incubated with DQ8 monomers in the absence of competitor peptide was used as positive control. For background analysis the binding reaction was performed without HLA-DQ8 monomers. The binding reaction was incubated for 48 h at 37 °C. Assays were then captured using anti-DQ antibody-coated plates (SPV-L3, Abcam, 15 μg ml^−1). Detection was performed using anti-FITC HRP (Abcam, 1:1,000) antibodies in combination with TMB substrate (BD Biosciences) and subsequent analysis with the Epoch plate reader (Biotech) at 450 and 405 nm. […]

Substance	IC50 [µM]
ins.mim.1: novel human insulin-B-chain-10-23 mimetope with 14E, 21G and 22E	3.2
ins.mim.2: insulin-B:10-23 peptide variant with 21G and 22E, previously established	6.3

Source: paper PMC4796321, “Type 1 diabetes vaccine candidates promote human Foxp3^+Treg induction in humanized mice” (Nature Communications, 2016)
